Assay results reported in patent publication US20260248774A1, “INHIBITORS OF BACTERIAL TYPE III SECRETION SYSTEM” (MICROBIOTIX, INC., priority 2022, published 2026).
pEC50, pIC50: −log10 of the molar value. ≈ marks a conversion by molar mass, not a printed value. Read-outs that look alike come from different tables or passages of the source.

Key:
[1] = Mammalian cytotoxicity (CC50), MTS conversion; format: cell-based, human; conditions: human
Protocol: (§1) Determination of Mammalian Cytotoxicity.
(§2) Following incubation for 3 days at 37° C. in VP-SFM, cell viability was measured with the vital tetrazolium salt stain 3-(4,5-dimethylthiazol-2-yl)-2,5 diphenyltetrazolium bromide according to the manufacturer's instructions (Promega, Madison, Wisconsin). Values were determined in triplicate using dilutions of inhibitory compound from 100 μM to 0.2 μM.

[2] = Kinetic aqueous solubility (nephelometric assay); format: physicochemical; conditions: for solubility kinetic: kinetic from dmso stock, Table 9, kinetic solubility in water (nephelometric assay); for Sol: Table 1
Text: Solubility. The maximum aqueous solubility of analogs will be initially determined by nephelometry using a published method (44).

[3] = test system: P. aeruginosa T3SS-mediated secretion of ExoS-β-lactamase fusion protein; assay: Effector-β-lactamase (ExoS-βLA) reporter assay of T3SS-mediated secretion; format: cell-based, Pseudomonas aeruginosa; conditions: read-out: ExoS-BLA IC50
Text: Effector-β-Lactamase (βLA) Reporter Assay of T3SS-Mediated Secretion with an Absorbency Signal.
A gene encoding the exoS promoter/regulatory region and an ExoS-β-lactamase (βLA) fusion protein (comprised of the full length P. aeruginosa T3SS effector ExoS fused in reading frame to the TEM-1 β-lactamase gene lacking secretion signal codons) was constructed by splicing by overlap extension PCR (SOE-PCR) (Choi and Schweizer, 2005, BMC Microbiol., 5:30), sequence confirmed, cloned into miniCTX and introduced into P. aeruginosa strain PAO1 to generate strains MDM1746 and MDM1838 as previously described for strain MDM1710 (Bowlin et al., 2014, Antimicrob Agents Chemother., 58:2211-2220). Secretion of ExoS-β-lactamase fusion protein following EGTA addition to induce the T3SS operons was detected by measuring the hydrolysis of the chromogenic β-lactamase substrate nitrocefin in clear 96-well microplates in a modification of a previously described assay (Lee, et al., 2007, Infect. Immun., 75:1089-98). Cells of strain MDM1746, or negative control MDM1838 (which fails to carry out T3SS secretion due to ΔpscF), were sub-cultured in the morning from overnight growths in LBG into 0.1 ml of LBGE with or without test compounds and grown for 150 min. Nitrocefin (100 μg/mL final) was added, and A490 measurements taken every minute for 15 min in a Victor^3V 1420 Multilabel HTS Counter (PerkinElmer). Slopes were calculated as a relative measure of the quantity of the effector-βLA fusion protein secreted and were absolutely dependent on induction with EGTA, and the presence of a functional pscF gene in the P. aeruginosa cells. Typical signal: background ratios were 6-10.

[4] = test system: P. aeruginosa T3SS-mediated secretion (exoT-luxCDABE reporter strain MDM852); assay: Luciferase (exoT-lux) transcriptional reporter assay of T3SS-mediated secretion; format: cell-based, Pseudomonas aeruginosa
Text: Luciferase Transcriptional Reporter Assay of T3SS-Mediated Secretion with a Luminescent Signal.
A transcriptional fusion of the Photorhabdus luminescens lux operon (luxCDABE) to P. aeruginosa PAO1 T3SS effector gene exoT (PA0044) was constructed and used to build strain MDM852 as described previously (Aiello et al., 2010, Antimicrob Agents Chemother, 54:1988-1999). Induction of T3SS operons by Ca^++ depletion due to EGTA addition results in secretion of the T3SS negative regulator ExsE and the production of high levels of T3SS components including the luxCDABE gene products, which results in luminescence that is easily detected by a microplate reader. Inhibition of T3SS-mediated secretion of the negative regulator ExsE by a small molecule inhibitor causes reduced production of luxCDABE gene products and reduced luminescence. For inhibitor IC50 testing, compounds were added to a 96-well microplate in a concentration dilution series. Reporter strain MDM852 was grown at 37° C. in LBG to OD600 ~0.025-0.05, transferred into the microplate (50 uL/well) containing test compounds and EGTA (5 uL of 0.1 M stock solution), which was covered with a translucent gas-permeable seal (Abgene, Inc., Cat. No. AB-0718). […] Plates were incubated at room temperature for 300 min. Then, luminescence was measured in an Envision Multilabel microplate reader (PerkinElmer). The screening window coefficient, Z′-factor (see Zhang, et al., 1999, J. Biomol. Screen., 4:67-73), defined as the ratio of the positive and negative control separation band to the signal dynamic range of the assay, averaged 0.7 for the assay.

[5] = test system: T3SS-mediated translocation of ExoU by P. aeruginosa strain MDM1561 (PA99U) into CHO cells; assay: P. aeruginosa ExoU-dependent CHO cell killing assay for T3SS-mediated translocation; format: cell-based, Pseudomonas aeruginosa; conditions: for potency of inhibition of T3SS-mediated translocation: assessment in text on Table 1; for pEC50: read-out: Translocation EC50
Text: P. aeruginosa ExoU-Dependent CHO Cell Killing.

[6] = test system: T3SS translocation, clinical isolates of Pseudomonas aeruginosa
[7] = Single dose pharmacokinetic (PK) determination in mice; set-up: species or system CD-1 mice; conditions: in vivo
HeLa cells = assay: Mammalian cytotoxicity (CC50), MTS conversion; format: cell-based, human; conditions: assessment in text on Table 1
Protocol: as §1, §2

[8] = Table 9, cytotoxicity vs. HeLa cells, read-out: Cytotox CC50
[9] = read-out: LUX Sec IC50, Table 1
[10] = HeLa cells, Table 1, HeLa, read-out: Cytotox-HeLa CC50

| Structure (SMILES) | CC50 at 3 days [1, 8] | solubility kinetic [2] | pIC50 ([3]; Table 1) | pIC50 [4, 9] | pEC50 ([5]; Table 1) | other results |
| --- | --- | --- | --- | --- | --- | --- |
| CC[C@@H](Oc1ncc(Cl)cc1Cl)C(=O)NCc1cccc(NC(=O)NC2COCC(NCCC(=O)O)C2)c1 (stereo partly drawn) [MBX-7531A] | ≥ 200 µM | – | – | – | – | – |
| CC[C@@H](Oc1ccc(Cl)c(Cl)c1Cl)C(=O)NCc1cccc(NC(=O)NC2CC3(C2)CN(CC(=O)O)C3)c1 [MBX-7476A] | ≥ 200 µM | – | – | – | – | – |
| CC[C@@H](Oc1ncc(Cl)cc1Cl)C(=O)NCc1cccc(NC(=O)NCCNCC(=O)O)c1 [MBX-7497A] | ≥ 200 µM | – | – | – | – | – |
| CC[C@@H](Oc1ncc(Cl)cc1Cl)C(=O)NCc1cccc(C(=O)NCC2CC3(C2)CN(CCC(=O)[O-])C3)c1.[Li+] [MBX-5522A] | – | ≥ 400 µM | – | – | – | – |
| CC[C@@H](Oc1ncc(Cl)cc1Cl)C(=O)NC(CO)Cc1ccc(F)cc1 (stereo partly drawn) [MBX-3323] | – | – | 5.30 | 5.28 | 4.89 | potency of inhibition of T3SS-mediated translocation [5]: not quite potent enough |
| CC[C@@H](Oc1ncc(Cl)cc1Cl)C(=O)N[C@@H](CO)Cc1ccc(F)cc1 [MBX-4567] | – | – | 4.85 | 5.07 | 4.22 | potency of inhibition of T3SS-mediated translocation [5]: not quite potent enough |
| CC[C@@H](Oc1ncc(Cl)cc1Cl)C(=O)NCc1cccc(C(=O)N2CC3(CC(NCCC(=O)[O-])C3)C2)c1.[Li+] [MBX-5529A] | – | ≥ 400 µM | – | – | – | – |
| CC(Oc1ccc(Cl)cc1Cl)C(=O)NCc1ccc2c(c1)OCO2 (stereo not drawn) [MBX-1641, N-(benzo[d][1,3]dioxol-5-ylmethyl)-2-(2,4-dichlorophenoxy)propanamide, reference compound] | – | – | 5.00 | 5.33 | 4.82 | pIC50 ([3]; Table 6): 5.00; pIC50 ([4]; read-out: LUX IC50, Table 6): 5.33; pEC50 ([5]; Table 6): 4.82 |
| CC[C@@H](Oc1ncc(Cl)cc1Cl)C(=O)NCc1cccc(C(=O)NC2CC3(C2)CN(CC(=O)[O-])C3)c1.[Li+] [MBX-5527A] | – | ≥ 400 µM | – | – | – | – |
| CC[C@@H](Oc1ncc(Cl)cc1Cl)C(=O)NCc1cccc(NC(=O)NC2CC3(C2)CN(CCC(=O)O)C3)c1 [MBX-5452A] | – | – | – | – | 5.57 | pEC50 ([5]; Table 6): 5.57; EC50 [6]: 0.74 µg/mL (≈ 1.31 µM) |
| CC[C@@H](Oc1ncc(Cl)cc1Cl)C(=O)NCCc1ccc(NC(C)=O)cc1 [MBX-3337] | – | – | 5.92 | 5.85 | 5.32 | – |
| CC[C@@H](Oc1ncc(Cl)cc1Cl)C(=O)NCc1cccc(C(=O)NC2CN(CCCC(=O)[O-])C2)c1.[Li+] [MBX-5430A] | ≥ 200 µM | 200 µM | – | – | – | – |
| CCC(Oc1ncc(Cl)cc1Cl)C(=O)NCc1ccc2c(c1)OCO2 (stereo not drawn) [MBX-2263] | – | – | 5.70 | 5.57 | 4.77 | CC50 at 3 days [1, 10]: > 100 µM; Sol [2]: 25 µM; solubility for formulation ([2]; assessment in text on Table 1): not soluble enough |
| CC[C@@H](Oc1ncc(Cl)cc1Cl)C(=O)NCc1cccc(CC(=O)NC2CC3(C2)CN(CCC(=O)[O-])C3)c1.[Li+] [MBX-5548A] | – | 200 µM | – | – | – | – |
| CCC(Oc1ncc(Cl)cc1Cl)C(=O)NCc1ccc2sccc2c1 (stereo not drawn) [MBX-2359, reference compound] | – | – | 5.82 | 5.89 | – | pIC50 ([3]; Table 6): 5.82; pIC50 ([4]; read-out: LUX IC50, Table 6): 5.89 |
| CC(Oc1ccc(Cl)cc1Cl)C(=O)NC(CO)c1ccc(F)cc1 (stereo not drawn) [MBX-2625] | – | – | 5.30 | 5.15 | 4.66 | – |
| CC[C@@H](Oc1ccc(Cl)c(Cl)c1Cl)C(=O)NCCc1cccc(NC(=O)NC2CC3(C2)CN(CCC(=O)O)C3)c1 [MBX-7477A] | ≥ 200 µM | – | – | – | – | – |

| Structure (SMILES) | CC50 at 3 days [1, 8] | solubility kinetic [2] | pIC50 ([3]; Table 1) | pIC50 [4, 9] | pEC50 ([5]; Table 1) | other results |
| --- | --- | --- | --- | --- | --- | --- |
| CC[C@@H](Oc1ncc(Cl)cc1Cl)C(=O)NCc1cccc(NC(=O)NCC2CN(CC(=O)O)C2)c1 [MBX-7438A] | ≥ 200 µM | – | – | – | – | – |
| CC[C@@H](Oc1ncc(Cl)cc1Cl)C(=O)NCc1cccc(CNC2CC(C(=O)[O-])C2)c1.[Li+] (stereo partly drawn) [MBX-5456A] | 107 µM | 200 µM | – | – | – | – |
| CC[C@@H](Oc1ncc(Cl)cc1Cl)C(=O)NCc1cccc(NC(=O)NC2CN(CCC(=O)[O-])C2)c1.[Li+] [MBX-5442A] | ≥ 200 µM | 200 µM | – | – | – | – |
| CC[C@@H](Oc1ncc(Cl)cc1Cl)C(=O)NCc1ccc2cc(C(=O)N3CCOCC3)[nH]c2c1 [MBX-3458] | – | – | 6.05 | 5.43 | 5.28 | CC50 at 3 days [1, 10]: 100 µM; Sol [2]: 25 µM; half-life in mice [7]: short half-lives in mice |
| CC[C@@H](Oc1ncc(Cl)cc1Cl)C(=O)NCc1ccc2cc(CN(C)C)[nH]c2c1 [MBX-2867] | – | – | 5.89 | 5.80 | 5.24 | CC50 at 3 days [1, 10]: 30 µM; cytotoxicity (HeLa cells): exhibit cytotoxicity; Sol [2]: 3000 µM |
| CC[C@@H](Oc1ncc(Cl)cc1Cl)C(=O)NCc1cccc(CN)c1 [MBX-4565] | – | – | 5.05 | 5.08 | 4.70 | – |
| CC[C@@H](Oc1ncc(Cl)cc1Cl)C(=O)NCc1cccc(C(=O)NC2CC3(C2)CN(CCCC(=O)[O-])C3)c1.[Li+] [MBX-5524A] | – | ≥ 400 µM | – | – | – | – |
| CCC(Oc1ncc(Cl)cc1Cl)C(=O)NCc1ccc(F)cc1 (stereo not drawn) [MBX-2264] | – | – | 5.70 | 5.70 | < 4.46 | potency of inhibition of T3SS-mediated translocation [5]: not quite potent enough; CC50 at 3 days [1, 10]: 85 µM; Sol [2]: 200 µM |
| CC(Oc1ccc(Cl)cc1Cl)C(=O)NCc1cc2ccccc2[nH]1 (stereo not drawn) [MBX-2624] | – | – | 5.05 | 5.06 | 4.77 | CC50 at 3 days [1, 10]: 9 µM; cytotoxicity (HeLa cells): exhibit cytotoxicity; Sol [2]: 100 µM |
| CC(Oc1ccc(Cl)cc1Cl)C(=O)NCC(O)c1ccc(F)cc1 (stereo not drawn) [MBX-2785] | – | – | 4.82 | 4.74 | 4.60 | potency of inhibition of T3SS-mediated translocation [5]: not quite potent enough |
| CC[C@@H](Oc1ncc(Cl)cc1Cl)C(=O)NCc1cccc(C(=O)NC2CNC2)c1 [MBX-5031] | – | – | 5.77 | 6.70 | 5.77 | – |
| CC[C@@H](Oc1ncc(Cl)cc1Cl)C(=O)NCc1cccc(NC(=O)N2CC3(CN(CC(C)(C)C(=O)[O-])C3)C2)c1.[Li+] [MBX-7061A] | – | 1.1 µM | – | – | – | – |
| CC[C@@H](Oc1ccc(Cl)c(Cl)c1Cl)C(=O)NCCc1cccc(NC(=O)NC2CC3(C2)CN(CC(=O)O)C3)c1 [MBX-7478A] | ≥ 200 µM | – | – | – | – | – |
| CC[C@@H](Oc1ncc(Cl)cc1Cl)C(=O)NCc1cccc(NC(=O)N2CC3(CN(CCC(=O)[O-])C3)C2)c1.[Li+] [MBX-7062A] | – | 3.5 µM | – | – | – | – |
| CC(=O)Nc1ccc(CCNC(=O)C(C)Oc2ccc(Cl)cc2Cl)cc1 (stereo not drawn) [MBX-2837] | – | – | 5.05 | 5.46 | 4.89 | – |
| CC[C@@H](Oc1ncc(Cl)cc1Cl)C(=O)NCc1cccc(C(=O)NC2CN(CCC(=O)[O-])C2)c1.[Li+] [MBX-5427A] | ≥ 200 µM | 100 µM | – | – | – | – |
| CC[C@@H](Oc1ncc(Cl)cc1Cl)C(=O)NCc1cccc(C(=O)NC2CN(CC(=O)[O-])C2)c1.[Li+] [MBX-5454A] | ≥ 100 µM | 200 µM | – | – | – | – |
